Experimental data published in patent US7045343B2, “Sterilization indicator test packs” (3M Innovative Properties Company, priority 1998, dated 2006).

Tested on: enzyme associated with Bacillus stearothermophilus spores
Assay: Rapid enzyme fluorescence readout of indicators after hydrogen peroxide plasma sterilization
Assay type: biochemical
Conditions: for FLUORESCENCE - PERCENT POSITIVE 1 HR / FLUORESCENCE - PERCENT POSITIVE 2 HR / FLUORESCENCE - PERCENT POSITIVE 3 HR / FLUORESCENCE - PERCENT POSITIVE 4 HR / FLUORESCENCE - PERCENT POSITIVE 5 HR: 1–22 min diffusion
In short: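 Indicators with a TYVEK closure held spores coated with various chemicals and were exposed to hydrogen peroxide plasma at 45–55 °C: 6–7 mg/ml chamber peroxide, diffusing 1–22 min at 6–10 Torr. Enzyme fluorescence was read hourly for 5 h at 60 °C. Growth was scored visually as a purple-to-yellow change after 168 h.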

Decaglyceryl Monostearate
83.0%: FLUORESCENCE - PERCENT POSITIVE 2 HR (Example 7, 50 mg/ml coating)
91.3%: FLUORESCENCE - PERCENT POSITIVE 4 HR (Example 7, 50 mg/ml coating) | FLUORESCENCE - PERCENT POSITIVE 5 HR (Example 7, 50 mg/ml coating)
64.4%: FLUORESCENCE - PERCENT POSITIVE 1 HR (Example 7, 50 mg/ml coating)
89.8%: FLUORESCENCE - PERCENT POSITIVE 3 HR (Example 7, 50 mg/ml coating)

Decaglyceryl Decaoleate
73.3%: FLUORESCENCE - PERCENT POSITIVE 1 HR (Example 9, 100 mg/ml coating)
90.2%: FLUORESCENCE - PERCENT POSITIVE 2 HR (Example 9, 50 mg/ml coating)
83.7%: FLUORESCENCE - PERCENT POSITIVE 1 HR (Example 6, 10 mg/ml coating) | FLUORESCENCE - PERCENT POSITIVE 1 HR (Example 7, 10 mg/ml coating) | FLUORESCENCE - PERCENT POSITIVE 1 HR (Example 9, 10 mg/ml coating)
65.7%: FLUORESCENCE - PERCENT POSITIVE 1 HR (Example 9, 5 mg/ml coating)
85.0%: FLUORESCENCE - PERCENT POSITIVE 1 HR (Example 9, 50 mg/ml coating)
86.7%: FLUORESCENCE - PERCENT POSITIVE 2 HR (Example 9, 100 mg/ml coating)
improved: accuracy of sterilization indicators compared to indicators made with untreated spores (1–3 hours after exposure) | accuracy of sterilization indicators compared to indicators made with untreated spores (2–3 hours after exposure) | accuracy of sterilization indicators compared to indicators made with untreated spores (2–3 hours after exposure, concentrations of 5–100 mg/ml)
100%: FLUORESCENCE - PERCENT POSITIVE 2 HR (Example 6, 10 mg/ml coating) | FLUORESCENCE - PERCENT POSITIVE 3 HR (Example 6, 10 mg/ml coating) | FLUORESCENCE - PERCENT POSITIVE 4 HR (Example 6, 10 mg/ml coating) | FLUORESCENCE - PERCENT POSITIVE 5 HR (Example 6, 10 mg/ml coating) | FLUORESCENCE - PERCENT POSITIVE 2 HR (Example 7, 10 mg/ml coating) | FLUORESCENCE - PERCENT POSITIVE 3 HR (Example 7, 10 mg/ml coating) | FLUORESCENCE - PERCENT POSITIVE 4 HR (Example 7, 10 mg/ml coating) | FLUORESCENCE - PERCENT POSITIVE 5 HR (Example 7, 10 mg/ml coating) | FLUORESCENCE - PERCENT POSITIVE 2 HR (Example 9, 5 mg/ml coating) | FLUORESCENCE - PERCENT POSITIVE 3 HR (Example 9, 5 mg/ml coating) | FLUORESCENCE - PERCENT POSITIVE 4 HR (Example 9, 5 mg/ml coating) | FLUORESCENCE - PERCENT POSITIVE 5 HR (Example 9, 5 mg/ml coating) | FLUORESCENCE - PERCENT POSITIVE 2 HR (Example 9, 7.5 mg/ml coating) | FLUORESCENCE - PERCENT POSITIVE 3 HR (Example 9, 7.5 mg/ml coating) | FLUORESCENCE - PERCENT POSITIVE 4 HR (Example 9, 7.5 mg/ml coating) | FLUORESCENCE - PERCENT POSITIVE 5 HR (Example 9, 7.5 mg/ml coating) | FLUORESCENCE - PERCENT POSITIVE 2 HR (Example 9, 10 mg/ml coating) | FLUORESCENCE - PERCENT POSITIVE 3 HR (Example 9, 10 mg/ml coating) | FLUORESCENCE - PERCENT POSITIVE 4 HR (Example 9, 10 mg/ml coating) | FLUORESCENCE - PERCENT POSITIVE 5 HR (Example 9, 10 mg/ml coating) | FLUORESCENCE - PERCENT POSITIVE 3 HR (Example 9, 50 mg/ml coating) | FLUORESCENCE - PERCENT POSITIVE 4 HR (Example 9, 50 mg/ml coating) | FLUORESCENCE - PERCENT POSITIVE 5 HR (Example 9, 50 mg/ml coating) | FLUORESCENCE - PERCENT POSITIVE 3 HR (Example 9, 100 mg/ml coating) | FLUORESCENCE - PERCENT POSITIVE 4 HR (Example 9, 100 mg/ml coating) | FLUORESCENCE - PERCENT POSITIVE 5 HR (Example 9, 100 mg/ml coating)
83.5%: FLUORESCENCE - PERCENT POSITIVE 1 HR (Example 9, 7.5 mg/ml coating)
